Experimental data as given in patent US6664271B1, “Immunopotentiator agents” (Eli Lilly and Company, priority 1999, dated 2003).
Marks after values point to notes of the source that are not given here.

System: chicken leukocytes
Test: cells
Type: cell-based
Details: Gallus gallus, Leukocyte; chicken leukocytes, read at 72 hours; read-out: MSC (Minimum Stimulatory Concentration)
Procedure: Various compounds of Formula I were evaluated for in vitro T-lymphocyte blastogenic activity with chicken leukocytes according to the steps described in the following procedure:
(a) Exsanguination step. The leukocytes were obtained from 3-6 week old Hubbard/Peterson broiler chickens. Initially, the chickens were rendered unconscious in a CO2 chamber. The chickens were then exsanguinated via cardiac puncture. In the exsanguination procedure, a syringe was connected to a needle, and the needle was inserted into the area at the base of the neck under the “V” formed by the breast and sternum. After the needle was properly inserted, continuous vacuum was applied to a syringe (connected to the needle) by pulling back on the plunger. It is important to promptly carry out this withdrawal action, because there is only a 10-15 seconds time period after the blood has starting flowing into the syringe before the blood coagulates, and becomes unusable. As soon as the syringe is full (or prior to complete filling if too much time has elapsed such that the blood begins to coagulate), the whole uncoagulated blood is transferred to a tube having the anticoagulant EDTA therein. The tube is then rotated to mix the whole blood and the EDTA. Alternatively, the whole blood can be withdrawn directly into a vacuum container already having EDTA therein, rather than into a syringe.
(b) Leukocyte isolation step. Numerous methods for isolating leukocytes from (uncoagulated) whole blood are known in the art. In a preferred method, the sterile whole blood was combined with methylcellulose (1.5:1). Any blood containing clots was discarded. The mixture was centrifuged at 30×g for ten minutes (300 rpm on Beckman GS-6R centrifuge). The top layer (leukocytes in supernatant) was decanted into a sterile 50 ml conical tube, while taking care to prevent contamination of the sample by red blood cells. The decanted layer was then centrifuged at 200×g for ten minutes (1500 rpm on the Beckman GS-6R centrifuge). The supernatant liquid was discarded, and the resulting cell “pellet” was retained.
The cells were then washed in a solution containing 10 ml PBS (phosphate buffered saline) and Gentamycin (gentamicin sulfate) at a concentration of 50 μg/ml. This solution was centrifuged at 100×g (1000 rpm on the Beckman centrifuge) for five minutes, and the supernatant liquid was discarded. The washing step (including the centrifuging at 100×g) was repeated to ensure complete removal of the methylcellulose. The use of media such as DMEM ([…]) was avoided in the washing steps, since such media may cause agglutination of the white blood cells. Finally, the cells were then suspended in an appropriate media, such as RPMI 1640 tissue cell culture medium, supplemented with phenol red, NaHCO3, and L-Glutamide. Supplemented RPMI 1640 is available from Sigma-Aldrich Chemical Co.
(c) Cell counting and cell viability step. The cells were counted and checked for viability using the Trypan Blue method of exclusion. 0.1 ml of the cell suspension was placed in a 4-5 ml small culture tube along with 0.7 ml HBSS (Hank's Buffered Saline Solution), available from Sigma-Aldrich, and 0.2 ml of a 0.4% solution of aqueous Trypan Blue stain, available from GIBCO BRL, of Grand Island, N.Y. The components were mixed thoroughly but gently, and allowed to sit for 5 minutes (no longer than 15 minutes). The components should not be exposed to the stain for extended periods of time, because such extended exposure may permit viable cells, as well as non-viable cells, to take up dye.
A cover slip was placed on a Bright Line hemacytometer, available from Howser Scientific, and 10 μl of the mixture from the tube was transferred to each chamber. Non-viable cells appear blue under a microscope. The viable cells in one of the 16-square corners of the hemacytometer were then counted. […]

Compared with `CCOC(=O)C1CN(C(=O)NC)CCC1=O` (stereo not shown) [Example 11, Ethyl 1-(N-Methylaminocarbonyl)-4-oxo-3-piperidinecarboxylate], `CCOC(=O)C1CC(C)CN(C(=O)Cc2cccs2)C1` (stereo not shown) [Example 57, Ethyl 1-(2-Thiopheneacetyl)-5-methyl-3-piperidinecarboxylate] is 10000-fold higher in minimal effective concentration: 0.001 µg/mL for the first, 10 µg/mL for the second.

Going from `CCOC(=O)[C@H]1CCCN(C(=O)c2ccccc2)C1` [Example 15, (S)-Ethyl 1-Benzoyl-3-piperidinecarboxylate] to `CCCOC(=O)[C@H]1CCCN(C(=O)c2ccccc2)C1` [Example 53, (S)-Propyl 1-Benzoyl-3-piperidinecarboxylate], the minimal effective concentration rises from 0.1 µg/mL to 1 µg/mL (10-fold).

`CCCC(=O)C1CCCN(C(=O)c2ccccc2)C1` (stereo not shown) [Example 29, 1-Benzoyl-3-butyrylpiperidine] and `O=C(O)[C@H]1CCCN(C(=O)c2ccccc2)C1` [Example 50, (S)-1-Benzoyl-3-piperidinecarboxylic Acid] are the same in minimal effective concentration: 1 µg/mL for the first, 1 µg/mL for the second.

First: COC(=O)[C@H]1CCCN(C(=O)c2ccccc2)C1 [Example 52, (S)-Methyl 1-Benzoyl-3-piperidinecarboxylate]
Second: CCOC(=O)[C@H]1CCCN(CCCc2cccs2)C1 [Example 54, (S)-Ethyl 1-(2-Thienylpropyl)-3-piperidinecarboxylate]
The minimal effective concentration of the first is 10-fold lower: 0.1 µg/mL for the first, 1 µg/mL for the second.

`CCOC(=O)C1CN(C(=O)Cc2cccs2)CCC1C` (stereo not shown) [Example 62, Ethyl 1-(2-Thiopheneacetyl)4-methyl-3-piperidinecarboxylate] and `O=C[C@H]1CCCN(C(=O)Cc2cccs2)C1` [Example 63, (S)-1-(2-Thiopheneacetyl)-3-piperidinecarboxaldehyde] are the same in minimal effective concentration: 1 µg/mL for the first, 1 µg/mL for the second.

`N#C[C@H]1CCCN(C(=O)Cc2cccs2)C1` [Example 64, (S)-1-(2-Thiopheneacetyl)-3-piperidinonitrile] gave a minimal effective concentration of 1 µg/mL.

Same assay, conditions: Hubbard/Peterson broiler, chicken, 72 h

Compared with `CCOC(=O)C1CN(C(=O)NC)CCC1=O` (stereo not shown) [Example 11, Ethyl 1-(N-Methylaminocarbonyl)-4-oxo-3-piperidinecarboxylate], `CCOC(=O)C1CC(C)CN(C(=O)Cc2cccs2)C1` (stereo not shown) [Example 57, Ethyl 1-(2-Thiopheneacetyl)-5-methyl-3-piperidinecarboxylate] is 10-fold higher in “MTC (Maximum Tolerable Concentration prior to causing cytotoxicity)” value (“MTC” for short): 1 µg/mL for the first, 10 µg/mL for the second.

`CCOC(=O)[C@H]1CCCN(C(=O)c2ccccc2)C1` [Example 15, (S)-Ethyl 1-Benzoyl-3-piperidinecarboxylate] and `CCCOC(=O)[C@H]1CCCN(C(=O)c2ccccc2)C1` [Example 53, (S)-Propyl 1-Benzoyl-3-piperidinecarboxylate] are the same in “MTC” value: 10 µg/mL for the first, 10 µg/mL for the second.

`CCCC(=O)C1CCCN(C(=O)c2ccccc2)C1` (stereo not shown) [Example 29, 1-Benzoyl-3-butyrylpiperidine] and `O=C(O)[C@H]1CCCN(C(=O)c2ccccc2)C1` [Example 50, (S)-1-Benzoyl-3-piperidinecarboxylic Acid] are the same in “MTC” value: 10 µg/mL for the first, 10 µg/mL for the second.

`COC(=O)[C@H]1CCCN(C(=O)c2ccccc2)C1` [Example 52, (S)-Methyl 1-Benzoyl-3-piperidinecarboxylate] and `CCOC(=O)[C@H]1CCCN(CCCc2cccs2)C1` [Example 54, (S)-Ethyl 1-(2-Thienylpropyl)-3-piperidinecarboxylate] are the same in “MTC” value: 10 µg/mL for the first, 10 µg/mL for the second.

`CCOC(=O)C1CN(C(=O)Cc2cccs2)CCC1C` (stereo not shown) [Example 62, Ethyl 1-(2-Thiopheneacetyl)4-methyl-3-piperidinecarboxylate] and `O=C[C@H]1CCCN(C(=O)Cc2cccs2)C1` [Example 63, (S)-1-(2-Thiopheneacetyl)-3-piperidinecarboxaldehyde] are the same in “MTC” value: 10 µg/mL for the first, 10 µg/mL for the second.

For `N#C[C@H]1CCCN(C(=O)Cc2cccs2)C1` [Example 64, (S)-1-(2-Thiopheneacetyl)-3-piperidinonitrile], the “MTC” value was 10 µg/mL.

Same assay, conditions: chicken leukocytes, read at 72 hours

Compared with `CCC(=O)OC1CCCN(C(=O)Cc2cccs2)C1` (stereo not shown) [Example 46, 1-(2-Thiopheneacetyl)-3-(O-propionyl)piperidine], `CCOC(=O)[C@H]1CCCN(C(=O)NCc2ccccc2)C1` [Example 48, (S)-Ethyl 1-(N-Benzylurea)-3-piperidinecarboxylate] is 10-fold higher in “MSC (Minimum Stimulatory Concentration)” value: 1 µg/mL for the first, 10 µg/mL for the second.

Going from `CCOC(=O)[C@H]1CCCN(C(=O)NC)C1` [Example 49, (S)-Ethyl 1-(N-Methylurea)-3-piperidinecarboxylate] to `O=C(Cc1cccs1)N1CCC[C@H](CO)C1` [Example 59], the “MSC (Minimum Stimulatory Concentration)” value rises from 1 µg/mL to 10 µg/mL (10-fold).

Going from `CCOC(=O)C1CCC[N@+](C)(Cc2ccccc2)C1.[I-]` (stereo partly drawn) [Example 68, (S)-Ethyl 1-Benzyl-3-piperidinecarboxylate 1-methiodide] to `CN(C)C(=O)C1CCC[N@+](C)(Cc2ccccc2)C1.[I-]` (stereo partly drawn) [Example 71, (S)-N,N-Dimethyl 1-Benzyl-3-piperidinecarboxamide 1-methiodide], the “MSC (Minimum Stimulatory Concentration)” value falls from 1 µg/mL to 0.1 µg/mL (10-fold).

“(S)-Ethyl 1-(2-Thiazyl)-3-piperidinecarboxylate 1-methiodide [Example 73]” and “Ethyl 1-(2-Bromobenzoyl)-2-acetylpiperidinecarboxylate [Example 45]” are the same in “MSC (Minimum Stimulatory Concentration)” value: 1 µg/mL for the first, 1 µg/mL for the second.

First: CCC(=O)OC1CCCN(C(=O)Cc2cccs2)C1 (stereo not shown) [Example 46, 1-(2-Thiopheneacetyl)-3-(O-propionyl)piperidine]
Second: O=C(Cc1cccs1)N1CCC[C@H](CO)C1 [Example 59]
The “MTC” value of the first is 10-fold lower: 10 µg/mL for the first, 100 µg/mL for the second.

With `CCOC(=O)[C@H]1CCCN(C(=O)NC)C1` [Example 49, (S)-Ethyl 1-(N-Methylurea)-3-piperidinecarboxylate] the “MTC” value was 10 µg/mL.

System: E. coli
Test: colibacillosis infection model in broiler chickens, Trial A (Example 78)
Type: in vivo, chicken
Details: 2 μg/chick subcutaneous

`CCOC(=O)C1CN(C(=O)NC)CCC1=O` (stereo not shown) [Example 11, Ethyl 1-(N-Methylaminocarbonyl)-4-oxo-3-piperidinecarboxylate] was tested, and the “% Colibacillosis-associated Mortality” value was 14.0%.

In the case of `CCOC(=O)C1CN(C(=O)NC)CCC1=O` (stereo not shown) [Example 11, Ethyl 1-(N-Methylaminocarbonyl)-4-oxo-3-piperidinecarboxylate], the “% Total Mortality” value is reported as 16.5* %.

With `CCOC(=O)C1CN(C(=O)NC)CCC1=O` (stereo not shown) [Example 11, Ethyl 1-(N-Methylaminocarbonyl)-4-oxo-3-piperidinecarboxylate] the “Average Weight Gain/Bird” value was 1.40 lb (635 g).

With `CCOC(=O)C1CN(C(=O)NC)CCC1=O` (stereo not shown) [Example 11, Ethyl 1-(N-Methylaminocarbonyl)-4-oxo-3-piperidinecarboxylate] the Feed/Gain was 1.35.

System: E. coli 19B
Test: bacterial clearance of E. coli from peripheral blood of neonatal chicks (Example 77)
Type: in vivo, chick
Details: single subcutaneous injection of 25 μg, E. coli challenge, blood 14-18 hours post-challenge
Procedure: The compounds of Example 15 ((S)-ethyl 1-benzoyl-3-piperidinecarboxylate), Example 29 (1-benzoyl-3-butyrylpiperidine), Example 30 ((S)-ethyl 1-(2-thiopheneacetyl)-3-piperidinecarboxylate) and Example 68 ((S)-ethyl 1-benzyl-3-piperidinecarboxylate 1-methiodide), respectively, were tested to determine whether a single subcutaneous injection enhanced the bacterial clearance of E. coli from the peripheral blood of neonatal chicks. Bacterial clearance is a measurement of cell-mediated immunity, specifically, phagocyte function, in animals. An approved Animal Care and Use Committee protocol governed the activity in this experiment.
1 ml syringes with 21 g 1″ needles (Becton Dickinson and Company Franklin Lakes, N.J. 07417-1884); 1 ml syringe with 25 g ⅝″ needles (Becton Dickinson and Company Franklin Lakes, N.J. 07417-1884); EMB agar plates (Difco Laboratories, Becton Dickinson Microbiology Systems, Sparks, Md. 21152); Culture tubes (14 ml polystyrene round bottom, Becton Dickinson Labware, Franklin Lakes, N.J. 07417-1886); Dulbecco's Phosphate Buffered Saline w/o Mg^++ or Ca^++ (Gibco BRL, Life Technologies Rockville, Md. 20850). Peterson x Hubbard male chicks (day of hatch from a commercial hatchery) were utilized
160 chicks were divided into 6 groups: Group 1=Controls (acetate-buffered saline vehicle); Group 2=Compound of Example 15 ((S)-ethyl 1-benzoyl-3-piperidinecarboxylate); Group 3=Compound of Example 29 (1-benzoyl-3-butyrylpiperidine); Group 4=Compound of Example 30 ((S)-ethyl 1-(2-thiopheneacetyl)-3-piperidinecarboxylate); Group 5=Compound of Example 68 ((S)-ethyl 1-benzyl-3-piperidinecarboxylate 1-methiodide); and Group 6=environmental controls. Groups 1-5 contained 3 replicates of 10 chicks each and Group 6 contained 1 replicate of 10 chicks.
Day −2 Upon arrival, day of hatch chicks were randomized (10/group), and placed in a Petersime heated brooder battery unit (Petersime Incubator Company, Gettysburg, Ohio 45328). […] All chicks were given ad libitum access to a commercially available starter feed and water.
Day 0 11:00 AM. Five to ten colonies of E. coli 19B were selected from a fresh overnight blood agar plate (TSA II with 5% sheep blood, Becton Dickinson Microbiology Systems Cockeysville, Md. 21030) and placed into 100 ml Brain Heart Infusion broth (Difco Laboratories, Becton Dickinson Microbiology Systems Sparks, Md. 21152) in a flask. […]
Day 5 EMB plates were removed from the incubator and bacterial colonies were counted and recorded to calculate CFU/ml/chick.
Data was transformed to logio values, and analysis of variance was used to determine significant differences between the treatment groups and controls. Data was expressed as the percentage of enhancedbacterial clearance compared to E. coli-challenged controls. […]

In the case of `CCOC(=O)[C@H]1CCCN(C(=O)c2ccccc2)C1` [Example 15, (S)-Ethyl 1-Benzoyl-3-piperidinecarboxylate], the “% Enhanced Clearance Compared to Controls” value is reported as 34* %.
In the case of `CCCC(=O)C1CCCN(C(=O)c2ccccc2)C1` (stereo not shown) [Example 29, 1-Benzoyl-3-butyrylpiperidine], the “% Enhanced Clearance Compared to Controls” value is reported as 33* %.
For `CCOC(=O)C1CCC[N@+](C)(Cc2ccccc2)C1.[I-]` (stereo partly drawn) [Example 68, (S)-Ethyl 1-Benzyl-3-piperidinecarboxylate 1-methiodide], the “% Enhanced Clearance Compared to Controls” value was 50* %.
